Measured values reported in patent publication US20260308149A1, “NOVEL CARBOXAMIDE DERIVATIVES” (ANGELINI PHARMA S.P.A., priority 2023, published 2026).

Target: T1, human Kv7.2 (Homo sapiens, UniProt O43526)
T1 construct: expressed in transfected cells
Experiment: activation (potentiation) of Kv7.2 current, SyncroPatch 384 electrophysiology in CHO cells stably expressing human Kv7.2
Assay type: cell-based
Conditions: human Kv7.2 in CHO cells; in presence of 5.6 μM zinc pyrithione; % activation relative to 30 μM ML-213
Protocol: The potency of Kv7 potentiators was determined using the SyncroPatch 384 (Nanion) high throughput electrophysiology platform.
CHO cells stably expressing either human Kv7.2, Kv7.4 or Kv7.5/7.3 under a constitutive CMV promoter were used for these studies. Cells were maintained in F12 Hams+1 mM L-glutamine (Hyclone) supplemented with 10% FBS (Sigma), 0.3×NEAA (Non-essential Gamino-acids) and 400 ug/ml G418 at 37° C. in 5% CO2. Cells were cultured in T-225 flasks (Nunc) for 2-3 days to reach 85-95% confluence prior to electrophysiological recording.
Earle's balanced salt solution (in mM): 135 NaCl, 5.4 KCl, 5 Glucose, 2 CaCl2), 1 MgCl2, 5 HEPES, pH 7.4. Seal enhancer solution (in mM): 90 NaCl, 3 KCl, 35 CaCl2), 10 MgCl2, 10 HEPES, pH 7.4. Extracellular recording solution (in mM): 71 NaCl, 70 NMDG, 13 KCl. 5 Glucose, 2 CaCl2, 1 MgCl2, 10 HEPES, pH 7.4. Intracellular recording solution (in mM): 130 KF, 20 KCl, 4 EGTA, 10 HEPES, 2 EDTA, 0.01 Escin, pH 7.2.
Cells were harvested for electrophysiological recording upon reaching appropriate confluence. Cells were first washed in DPBS (Hyclone, Cat #SH30028.03) and then 2 ml of Accutase (MP Biomedicals #1000449) was added at 28° C. until ~90% of cells were suspended. F12 HAM's media+1 mM L-glutamine (Hyclone, SH30026.02) was then added to the flask to dilute the accutase. Cells were then triturated until a single cell suspension was achieved, a cell count was performed, and cells were centrifuged for 2 min. at 1,000 rpm. Media was then aspirated, and cells were resuspended in Earle's balanced salt solution to a concentration of 0.75×10^6 cells/ml and allowed to recover for 25 min at 10° C.
At the beginning of each assay, 20 μl of cell suspension was dispensed into each well of a multi-hole 384-well SyncroPatch chip by the onboard pipettor. Cell sealing was initiated, and seal enhancer solution was added to facilitate seal formation. Upon completion of sealing, cells were washed 3 times with extracellular recording solution and the assay voltage protocol was started. Human Kv7.2, Kv7.4 or Kv7.5/7.3 channels were evaluated using a voltage protocol in which cells were voltage-clamped at a holding potential of −60 mV. Potassium currents were continuously activated with a series of three voltage steps to −30 mV for 3 seconds, 40 mV for 1 second and −90 mV for 4 seconds with 12 seconds between successive voltage sweeps. Potassium currents were measured from the −90 mV repolarizing step. Baseline current was assessed for 3.5 minutes prior to the addition of 5.6 μM zinc pyrithione (1 μM for Kv7.4). Kv7.2, Kv7.4 or Kv7.5/7.3 current in the presence of zinc pyrithione was acquired over five minutes to allow channels to reach steady state activity prior to addition of test agents. Channel activity was monitored for three minutes preceding the addition of 30 μM ML-213 (3 minutes) to achieve maximum activation. 150 mM TEA with 10 μM XE-991 was applied for 2 minutes to measure the leak current during maximum inhibition of Kv7.2, Kv7.4 or Kv7.5/7.3 channels.
Data were collected on the SyncroPatch platform using PatchControl software (Nanion) and processed and analyzed using DataControl Software (Nanion). Percent activation was calculated from potassium current as follows: The average current for the 5 sweeps in the presence of zinc pyrithione immediately preceding test agent addition was taken as the ‘control’ data. Likewise, the average potassium current in the presence of test agents 5 sweeps immediately preceding addition of 30 μM ML-213 was determined for ‘drug’ data. The average potassium current 5 sweeps immediately prior to addition of 150 mM TEA+10 μM XE-991 was determined for ‘max activation’ data while average currents from 5 sweeps immediately following addition of TEA was determined for ‘max inhibition’ data. Percent activation for each of the 384-wells of a sealchip was calculated as ((‘drug’−‘max inhibition’)/(‘max activation’−‘max inhibition’))*100 with Pipeline Pilot (Accelrys). […]

T1 sequence (O43526 whole entry): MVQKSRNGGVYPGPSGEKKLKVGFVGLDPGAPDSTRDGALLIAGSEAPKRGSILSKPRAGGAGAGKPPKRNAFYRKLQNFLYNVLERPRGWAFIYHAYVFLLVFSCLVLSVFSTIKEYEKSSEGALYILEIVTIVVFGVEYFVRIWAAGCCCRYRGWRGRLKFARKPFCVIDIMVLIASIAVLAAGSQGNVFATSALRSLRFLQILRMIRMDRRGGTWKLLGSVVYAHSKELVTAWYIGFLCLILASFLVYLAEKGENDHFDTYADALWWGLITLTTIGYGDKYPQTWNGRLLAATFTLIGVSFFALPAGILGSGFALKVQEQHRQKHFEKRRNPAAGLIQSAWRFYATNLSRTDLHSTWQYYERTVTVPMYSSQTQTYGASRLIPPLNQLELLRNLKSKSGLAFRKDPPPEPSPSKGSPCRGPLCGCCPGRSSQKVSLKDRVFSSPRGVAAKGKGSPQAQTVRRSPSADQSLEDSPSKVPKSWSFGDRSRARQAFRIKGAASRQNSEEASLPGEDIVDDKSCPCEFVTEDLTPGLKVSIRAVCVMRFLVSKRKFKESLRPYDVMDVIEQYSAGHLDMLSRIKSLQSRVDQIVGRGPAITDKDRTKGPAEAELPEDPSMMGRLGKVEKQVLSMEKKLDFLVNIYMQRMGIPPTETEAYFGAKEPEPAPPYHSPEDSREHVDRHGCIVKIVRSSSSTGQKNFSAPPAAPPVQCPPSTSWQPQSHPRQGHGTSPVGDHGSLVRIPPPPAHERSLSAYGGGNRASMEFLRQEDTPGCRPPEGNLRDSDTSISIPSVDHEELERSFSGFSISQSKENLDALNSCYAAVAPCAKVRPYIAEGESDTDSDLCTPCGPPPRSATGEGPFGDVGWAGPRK

EC50 | SMILES
9610 nM | CO[C@@](C)(CNC(=O)[C@H]1C[C@@H]1c1cccnc1)c1cccc(Cl)c1 (mixture of isomers) [Example 48, (1SR,2SR)-N-[(2R)-2-(3-chlorophenyl)-2-methoxy-propyl]-2-(3-pyridyl)cyclopropanecarboxamide]
940 nM | COC(C)(CNC(=O)[C@H]1C[C@@H]1c1ccccc1)c1ccnc(Cl)c1 (mixture of isomers) [Example 51, (1S,2S)-N-[(2RS)-2-(2-chloro-4-pyridyl)-2-methoxy-propyl]-2-phenyl-cyclopropanecarboxamide]
9420 nM | COc1cc(C(C)(CNC(=O)[C@H]2C[C@@H]2c2ccccc2)OC)ccn1 (mixture of isomers) [Example 52, (1S,2S)-N-[(2RS)-2-methoxy-2-(2-methoxy-4-pyridyl)propyl]-2-phenyl-cyclopropanecarboxamide]
1120 nM | CO[C@@](C)(CNC(=O)[C@@H]1C[C@H]1C1CC1)c1cccc(Cl)c1 (mixture of isomers) [Example 79, (1RS,2SR)—N-[(2R)-2-(3-chlorophenyl)-2-methoxy-propyl]-2-cyclopropyl-cyclopropanecarboxamide]
220 nM | CO[C@@](C)(CNC(=O)[C@@H]1C[C@H]1C1CCCC1)c1cccc(Cl)c1 (mixture of isomers) [Example 80, (1RS,2SR)—N-[(2R)-2-(3-chlorophenyl)-2-methoxy-propyl]-2-cyclopentyl-cyclopropanecarboxamide]
500 nM | CO[C@@](C)(CNC(=O)[C@H]1C[C@H]1C1CCCC1)c1cccc(Cl)c1 (mixture of isomers) [Example 81, (1SR,2SR)—N-[(2R)-2-(3-chlorophenyl)-2-methoxy-propyl]-2-cyclopentyl-cyclopropanecarboxamide]
260 nM | N#Cc1cccc([C@]2(CNC(=O)[C@H]3C[C@@H]3C3CCC3)CCO2)c1 (mixture of isomers) [Example 101, (1SR,2RS)—N-[[(2S)-2-(3-cyanophenyl)oxetan-2-yl]methyl]-2-cyclobutyl-cyclopropanecarboxamide]
130 nM | N#Cc1cccc([C@]2(CNC(=O)[C@H]3C[C@@H]3c3ccc(F)cc3)CCO2)c1 (mixture of isomers) [Example 107, (1SR,2SR)—N-[[(2S)-2-(3-cyanophenyl)oxetan-2-yl]methyl]-2-(4-fluorophenyl)cyclopropanecarboxamide]
490 nM | CC(C)(C)[C@@H]1C[C@H]1C(=O)NC[C@@]1(c2cccc(C#N)c2)CCO1 (mixture of isomers) [Example 110, (1RS,2RS)-2-tert-butyl-N-[[(2S)-2-(3-cyanophenyl)oxetan-2-yl]methyl]cyclopropanecarboxamide]
2180 nM | CC(F)(F)[C@H]1C[C@@H]1C(=O)NC[C@@]1(c2cccc(C#N)c2)CCO1 (mixture of isomers) [Example 113, (1SR,2SR)—N-[[(2S)-2-(3-cyanophenyl)oxetan-2-yl]methyl]-2-(1,1-difluoroethyl)cyclopropanecarboxamide]
6010 nM | N#Cc1cccc([C@]2(CNC(=O)[C@H]3C[C@@H]3c3ccccn3)CCO2)c1 (mixture of isomers) [Example 124, (1SR,2SR)—N-[[(2S)-2-(3-cyanophenyl)oxetan-2-yl]methyl]-2-(2-pyridyl)cyclopropanecarboxamide]
4980 nM | CC[C@H]1C[C@@H]1C(=O)NC[C@@]1(c2cccc(C#N)c2)CCO1 (mixture of isomers) [Example 126, (1SR,2SR)—N-[[(2S)-2-(3-cyanophenyl)oxetan-2-yl]methyl]-2-ethyl-cyclopropanecarboxamide]
1040 nM | N#Cc1cccc([C@]2(CNC(=O)[C@H]3C[C@@H]3C3CC(F)(F)C3)CCO2)c1 (mixture of isomers) [Example 127, (1SR,2RS)—N-[[(2S)-2-(3-cyanophenyl)oxetan-2-yl]methyl]-2-(3,3-difluorocyclobutyl)cyclopropanecarboxamide]
1700 nM | CC#C[C@H]1C[C@@H]1C(=O)NC[C@@]1(c2cccc(C#N)c2)CCO1 (mixture of isomers) [Example 134, (1SR,2SR)—N-[[(2S)-2-(3-cyanophenyl)oxetan-2-yl]methyl]-2-prop-1-ynyl-cyclopropanecarboxamide]
1110 nM | CC#C[C@@H]1C[C@@H]1C(=O)NC[C@@]1(c2cccc(C#N)c2)CCO1 (mixture of isomers) [Example 137, (1SR,2RS)—N-[[(2S)-2-(3-cyanophenyl)oxetan-2-yl]methyl]-2-prop-1-ynyl-cyclopropanecarboxamide]
170 nM | COC(C)(CNC(=O)[C@H]1C[C@@H]1c1ccccc1)c1cccc(Cl)c1 (mixture of isomers) [Example 1, rac-(1S,2S)-N-[2-(3-chlorophenyl)-2-methoxy-propyl]-2-phenyl-cyclopropanecarboxamide]
970 nM | COC(CNC(=O)[C@H]1C[C@@H]1c1ccccc1)c1cccc(Cl)c1 (mixture of isomers) [Example 20, rac-(1R,2R)-N-[2-(3-chlorophenyl)-2-methoxy-ethyl]-2-phenyl-cyclopropanecarboxamide]
170 nM | COC(C)(CNC(=O)N[C@H]1CC2CCC1C2)c1cccc(Cl)c1 (mixture of isomers) [Example 25, 1-[2-(3-chlorophenyl)-2-methoxy-propyl]-3-[rac-(1S,2S,4R)-norbornan-2-yl]urea]
2490 nM | CC(C#N)(CNC(=O)[C@H]1C[C@@H]1c1ccccc1)c1cccc(C(F)(F)F)c1 (mixture of isomers) [Example 31, rac-(1S,2S)-N-[2-cyano-2-[3-(trifluoromethyl)phenyl]propyl]-2-phenyl-cyclopropanecarboxamide]
1350 nM | COC(C)(CNC(=O)NC1CC2CCC1C2)c1cccc(Cl)c1 (racemic) [Example 35, 1-[2-(3-chlorophenyl)-2-methoxy-propyl]-3-[rac-(1S,4R)-norbornan-2-yl]urea]
1320 nM | CC(C#N)(CNC(=O)[C@H]1C[C@@H]1c1ccccc1)c1cccc(Cl)c1 (mixture of isomers) [Example 37, rac-(1S,2S)-N-[2-(3-chlorophenyl)-2-cyano-propyl]-2-phenyl-cyclopropanecarboxamide]
830 nM | O=C(N[C@H]1C[C@@H]2CC[C@H]1C2)N[C@H]1C[C@H](c2cccc(Cl)c2)C1 (racemic) [Example 38, 1-[3-(1r,3r)-(3-chlorophenyl)cyclobutyl]-3-[(1SR,2SR,4RS)-norbornan-2-yl]urea]
790 nM | O=C(NCC(OCC(F)(F)F)c1cccc(Cl)c1)NC1C[C@H]2CC[C@@H]1C2 (mixture of isomers) [Example 45, 1-[2-(3-chlorophenyl)-2-(2,2,2-trifluoroethoxy)ethyl]-3-[rac-(1R,4S)-norbornan-2-yl]urea]
190 nM | O=C(NCC1(c2cccc(Cl)c2)CCO1)NC1CC2CCC1C2 (racemic) [Example 54, 1-[[2-(3-chlorophenyl)oxetan-2-yl]methyl]-3-[rac-(1S,2S,4R)-norbornan-2-yl]urea]

SMILES | EC50
CC(C)(C)O[C@H]1C[C@@H]1C(=O)NC[C@@]1(c2cccc(C#N)c2)CCO1 (mixture of isomers) [Example 114, (1SR,2SR)-2-tert-butoxy-N-[[(2S)-2-(3-cyanophenyl)oxetan-2-yl]methyl]cyclopropanecarboxamide] | 7520 nM
O=C(NCC(OC1CCC1)c1cccc(Cl)c1)NC1C[C@H]2CC[C@@H]1C2 (mixture of isomers) [Example 46, 1-[2-(3-chlorophenyl)-2-(cyclobutoxy)ethyl]-3-[rac-(1R,4S)-norbornan-2-yl]urea] | 3350 nM
